Measurements taken from patent US20210207099A1, “METHODS AND COMPOSITIONS FOR GENERATING CELLS OF ENDODERMAL LINEAGE AND BETA CELLS AND USES THEREOF” (priority 2018, published 2021).

Legend:
Format in all cases: cell-based, human
[1] = tested on: TGFβ signaling (phosphorylated SMAD); assay: Western blot of SMAD 2/3 phosphorylation in Stage 6 cells; conditions: lesser extent than Alk5i
Protocol: Protein was extracted from cell clusters after washing with PBS by placing in western blot lysis buffer consisting 50 mM HEPES, 140 mM NaCl (MilliporeSigma; 7647-14-5), 1 mM EDTA (MilliporeSigma, 1233508), 1% Triton X-100, 0.1% Na-deoxycholate (MilliporeSigma: D6750), 0.1% SDS (ThermoScientific; 24730020), 1 mM Na3VO4 (MilliporeSigma; 450243), 10 mM NaF (MilliporeSigma; S7920), and 1% Protease Inhibitor Cocktail (MilliporeSigma; p8340), incubating on a shaker for 15 min at 4° C., and centrifuging at 10000 RCF for 10 min at 4° C. Protein amount was quantified with the Pierce BCA Protein Assay (Thermo Scientific; 23228). Protein (30 μg) was loaded onto a 4-20% gradient polyacrylamide gel (Invitrogen; SP04200BOX), resolved by electrophoresis, and transferred onto a 0.45 μm nitrocellulose membrane (BioRad; 1620115). The nitrocellulose membrane was blocked with Blotting Grade Blocker (BioRad; 170-6404) and incubated with rabbit-anti-phospho-SMAD⅔ 1:1000 (Cell Signaling Technologies; 8828) and rabbit-anti-Actin 1:1000 (Santa Cruz Biotechnology; SC1616) antibodies in blocker overnight at 4° C. Membrane was washed and stained with rabbit secondary antibody 1:2500 (Jackson Immuno Research Laboratories; 211-032-171) in blocker for 2 hr at 4° C. and developed using SuperSignal West Femto (Thermo Scientific; 34096). Images were taken on an Odyssey FC (Li-COR). After imaging, the nitrocellulose membrane was stripped using Restore Western Blot Stripping Buffer (Thermo Scientific; 21059), incubated with rabbit-anti-SMAD⅔ (Cell Signaling Technologies; 8685) antibody overnight at 4° C., washed and stained with rabbit secondary antibody 1:2500 in blocker for 2 hr 4° C., developed using SuperSignal West Femto, and imaged using the Odyssey FC.

[2] = tested on: TGFBR1; assay: Lentiviral shRNA knockdown of TGFBR1 in Stage 6 cells; conditions: real-time PCR
Protocol: TBP was used as a normalization gene.
pLKO.1 TRC plasmids containing shRNA sequences contained the following sequences: shRNA GFP, […] (SEQ ID NO: 89); shRNA TGFBR1 #1, […] (SEQ ID NO: 90); shRNA TGFBR1 #2, […] (SEQ ID NO: 91). Lentivirus particles were generated and titered using pMD-Lgp/RRE and pCMV-G, and RSV-REV packaging plasmids to contain shRNA. Stage 6 Day 1 cells were single cell dispersed using TrypLE, and 3 million cells were seeded in 4 mL ESFM lentivirus particles at MOI 3-5 on the shaker. Transduced cells were washed with fresh ESFM 16 hr post transduction. RNA extraction and static GSIS was performed on stage 6 day 13.

[3] = tested on: plated pancreatic progenitors; assay: Single-cell RNA sequencing of plated pancreatic progenitors treated throughout stage 4; conditions: 5 μM nocodazole throughout stage 4
Protocol: Cells generated with the suspension protocol were single-cell dispersed with TrypLE from clusters at the end of stage 3 and seeded onto collagen 1 coated 24-well plates at 0.625×10^6 cells/cm^2. Either 0.5 μM latrunculin A or 5 μM nocodazole were added throughout the entirety of stage 4. At the end of stage 4, cells were single-cell dispersed, suspended in DMEM, and submitted to the Washington University Genome Technology Access Center. Library preparation was done using the Chromium Single Cell 3′ Library and Gel Bead Kit v2 (10× Genomics, 120237). Briefly, single cells were isolated in emulsions using a microfluidic platform, and each single cell emulsion was barcoded with a unique set of oligonucleotides. The GemCode Platform was used to carry out reverse transcription within each single cell emulsion, which was amplified to construct a library. The libraries were sequenced with paired-end reads of 26×98 primerbp using the Illumina HiSeq2500.
Seurat v2.0 was used to perform single cell RNA analyses. Duplicate cells and cells with high mitochondrial gene expression were filtered out using FilterCells (>9000 total genes and >5% mitochondrial genes for Untreated Control, >6000 genes and >6% mitochondrial genes for latrunculin A, >12000 genes and >4% mitochondrial genes for nocodazole). Each data set was normalized using global-scaling normalization. FindVariableGenes identified and removed outlier genes using scaled z-score dispersion. The datasets were then combined and a canonical correlation analysis (CCA) was performed with RunMultiCCA. AlignSubspace was used to align the CCA subspaces and generated a new dimension reduction for integrated analysis. Unsupervised TSNE plots were generated using RunTSNE, and the resulting clusters were defined and labeled using FindMarkers. VInPlot (Violin plots) and FeaturePlot (tsne plots) were used to visualize differences in gene expressions across each cluster and conditions.

[4] = tested on: HUES8 cells, exocrine differentiation protocol; assay: Exocrine pancreas differentiation with cytoskeletal compounds; conditions: 1 μM for the entirety of stage 4
Protocol: (§1) For differentiation to other endodermal lineages, HUES8 stem cells were cultured and passaged normally. Differentiations were initiated 24 hours after seeding 24-well plates at 0.521×10^6 cells/cm^2. Protocols for exocrine pancreas, intestine, and liver were adapted, from literature. Either latrunculin A or nocodazole were added as indicated in each protocol. All three differentiation protocols used the same stage 1 to induce endoderm. Stage 1 (4 days): BE1 media+100 ng/mL Activin A+3 μM CHIR99021 for the first 24 hours, followed with 3 days of BE1 containing 100 ng/mL Activin A only.
Exocrine Pancreas: Stage 2 (2 days): BE2 media+50 ng/mL KGF. Stage 3 (2 days): BE3+50 ng/mL KGF, 200 nM LDN193189, 500 nM TPPB, 2 μM retinoic acid, and 0.25 μM SANT1. Stage 4 (4 days): BE3+50 ng/mL KGF, 200 nM LDN193189, 500 nM TPPB, 0.1 μM retinoic acid, and 0.25 μM SANT1. Either 1 μM latrunculin A was added for the first 24 hours of this stage, or 1 μM nocodazole was added for the entirety of stage 4. Stage 5 (6 days): S5 media+10 ng/mL bFGF. 10 mM nicotinamide (MilliporeSigma, 72340) was added for the last two days.

[5] = tested on: HUES8 cells, intestinal differentiation protocol; assay: Intestine differentiation with cytoskeletal compounds; conditions: 1 μM for the entirety of stage 2
Protocol: as §1
Intestine Differentiation: Stage 2 (4 days): BE2 media+3 μM CHIR99021+500 ng/mL FGF4 (R&D Systems, 235-F4). Either 1 μM latrunculin A was added for the first 24 hours of this stage, or 1 μM nocodazole was added for the entirety of stage 2. Stage 3 (7 days): BE3 media+500 ng/mL R-spondin1 (R&D Systems, 4645-RS)+100 ng/mL EGF (R&D Systems, 236-EG)+200 nM LDN193189.

[6] = tested on: HUES8 cells, hepatic differentiation protocol; assay: Liver differentiation with cytoskeletal compounds; conditions: 1 μM for the first 24 hours of stage 3
Protocol: as §1
Liver Differentiation: Stage 2 (2 days): BE2 media+50 ng/mL KGF. Stage 3 (4 days): BE3 media+10 ng/mL bFGF+30 ng/mL BMP4 (R&D Systems, 314-BP). For the first 24 hours only, 2 μM retinoic acid and either 1 μM latrunculin A or 1 μM nocodazole were added. Stage 4 (5 days): BE3 media+20 ng/mL OSM (R&D Systems, 295-OM)+20 ng/mL HGF (R&D Systems, 294-HG)+100 nM dexamethasone (MilliporeSigma, D4902).

Compound | SMAD phosphorylation after shRNA transduction [1] | TGFBR1 transcript compared to control virus targeting GFP [2] | percentage of exocrine-like progenitors [3] [%] | endocrine induction [4] | trypsin gene expression (PRSS1, PRSS2) and immunostaining [4] | CDX2 gene expression and immunostaining [5] | hepatocyte gene expression [6] | immunostaining for albumin [6]
TGFBR1 #1: lentivirus carrying shRNA against TGFBR1, GATCATGATTACTGTCGATAA (SEQ ID NO: 90) | reduced SMAD phosphorylation | reducing TGFBR1 transcript |  |  |  |  |  | 
COC(=O)Nc1nc2ccc(C(=O)c3cccs3)cc2[nH]1 [nocodazole] |  |  | 67.0 | inhibited endocrine induction | greatly increased trypsin gene expression | greatly increased CDX2 gene expression and immunostaining | increased hepatocyte gene expression | more abundant with nocodazole treatment
TGFBR1 #2: lentivirus carrying shRNA against TGFBR1, GCAGGATTCTTTAGGCTTTAT (SEQ ID NO: 91) | reduced SMAD phosphorylation | reducing TGFBR1 transcript |  |  |  |  |  | 
